Calls of active or inactive are those of the source. No cut-off for these calls is given here.
What was measured:
RAW264.7 = test: Anti-necroptotic activity in LZ-induced mouse RAW264.7 cells assessed as increase in cell viability preincubated with compound followed by LPS and Z-VAD-FMK stimulation and measured after 16 hrs by CellTiter-Lumi luminescent cell viability assay; format: functional, cell-based
HT-29 [1] = test: Anti-necroptotic activity in TSZ-induced human HT-29 cells assessed as increase in cell viability at 2.5 uM preincubated with compound followed by Z-VAD-FMK, SM164 and TNFalpha addition and measured after 12 hrs by CellTiter-Lumi luminescent cell viability assay relative to control; format: functional
HT-29 [2] = test: Anti-apoptotic activity in TC-induced human HT-29 cells assessed as increase in cell viability at 1.25 to 20 uM preincubated with compound followed by TNF-alpha and cycloheximide addition and measured after 24 hrs by CellTiter-Lumi luminescent cell viability assay; format: functional, cell-based; details: dose 1.25-20 µM
Mus musculus [3] = test: (§1) Anti-necroptotic activity in TNFalpha/Z-VAD-FMK induced SIRS male C57BL/6J mouse model assessed as protection from death at 2.5 to 10 mg/kg, po pre-administered with compound via gavage for 2 hrs followed by […] of Z-VAD-FMK stimulation for 15 mins with subsequent TNF-alpha stimulation for 1 hrs and re-current […] of Z-VAD-FMK stimulation and measured after 8 hrs post SIRS induction; format: functional, organism-based; details: dose 2.5-10 mg/kg, time 10.0 hrs
Mus musculus [4] = test: as §1, with “reduction in IL6 in heart” for “protection from death”, “5” for “2.5”, “induction by ELISA” for “induction”; format: functional, organism-based; details: dose 5-10 mg/kg, time 10.0 hrs
Mus musculus [5] = test: as §1, with “reduction in IL6 in liver” for “protection from death”, “5” for “2.5”, “induction by ELISA” for “induction”; format: functional, organism-based; details: dose 5-10 mg/kg, time 10.0 hrs
Mus musculus [6] = test: as §1, with “reduction in IL6 in kidney” for “protection from death”, “5” for “2.5”, “induction by ELISA” for “induction”; format: functional, organism-based; details: dose 5-10 mg/kg, time 10.0 hrs
Mus musculus [7] = test: as §1, with “reduction in IL6 in brain” for “protection from death”, “5” for “2.5”, “induction by ELISA” for “induction”; format: functional, organism-based; details: dose 5-10 mg/kg, time 10.0 hrs
[8] = Bioavailability in Sprague-Dawley rat at 10 mg/kg, IG measured after 24 hrs by LC-MS/MS analysis; format: ADME, organism-based; details: in vivo, po
[9] = Acute toxicity in male C57BL/6J mouse assessed as hemorrhage in lung at 2 g/Kg, IG measured after 72 hrs by H and E staining based analysis; format: tissue-based; details: in vivo, po, 2000 mg/kg
[10] = Acute toxicity in male C57BL/6J mouse assessed as inflammatory cell infiltration in kidney at 2 g/Kg, IG measured after 72 hrs by H and E staining based analysis; format: tissue-based; details: in vivo, po, 2000 mg/kg
[11] = Acute toxicity in male C57BL/6J mouse assessed as hemorrhage in kidney at 2 g/Kg, IG measured after 72 hrs by H and E staining based analysis; format: tissue-based; details: in vivo, po, 2000 mg/kg
[12] = Acute toxicity in male C57BL/6J mouse assessed as hemorrhage in stomach at 2 g/Kg, IG measured after 72 hrs by H and E staining based analysis; format: tissue-based; details: in vivo, po, 2000 mg/kg
[13] = target: T1, Receptor-interacting serine/threonine-protein kinase 1 (Homo sapiens) (UniProt Q13546); test: Inhibition of RIPK1 phosphorylation at S166 residue in TSZ-induced human HT-29 cells at 10 uM preincubated with compound followed by Z-VAD-FMK, SM164 and TNFalpha stimulation and measured after 6 hrs by Western blot analysis; format: cell-based
T1 sequence (whole entry): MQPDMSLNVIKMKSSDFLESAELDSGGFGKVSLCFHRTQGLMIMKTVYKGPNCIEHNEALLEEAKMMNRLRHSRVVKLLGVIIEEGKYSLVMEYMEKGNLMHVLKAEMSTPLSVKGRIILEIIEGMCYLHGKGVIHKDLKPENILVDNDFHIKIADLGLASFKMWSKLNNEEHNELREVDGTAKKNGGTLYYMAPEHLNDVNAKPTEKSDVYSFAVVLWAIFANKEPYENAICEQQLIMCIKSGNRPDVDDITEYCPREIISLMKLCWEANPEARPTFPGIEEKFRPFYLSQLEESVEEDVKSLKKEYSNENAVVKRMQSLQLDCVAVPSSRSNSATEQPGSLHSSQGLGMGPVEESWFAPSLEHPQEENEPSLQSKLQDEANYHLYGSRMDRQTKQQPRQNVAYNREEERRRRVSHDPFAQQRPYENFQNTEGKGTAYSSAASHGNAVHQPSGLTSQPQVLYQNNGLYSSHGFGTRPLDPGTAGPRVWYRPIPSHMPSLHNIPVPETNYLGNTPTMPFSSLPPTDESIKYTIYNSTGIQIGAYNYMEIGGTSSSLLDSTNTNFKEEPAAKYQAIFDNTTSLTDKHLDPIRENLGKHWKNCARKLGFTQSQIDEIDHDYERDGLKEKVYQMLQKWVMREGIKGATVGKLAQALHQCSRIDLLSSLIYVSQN

[14] = target: T2, Mixed lineage kinase domain-like protein (Homo sapiens) (UniProt Q8NB16); test: Inhibition of MLKL phosphorylation at S358 residue in TSZ-induced human HT-29 cells at 10 uM preincubated with compound followed by Z-VAD-FMK, SM164 and TNFalpha stimulation and measured after 6 hrs by Western blot analysis; format: cell-based
T2 sequence (whole entry): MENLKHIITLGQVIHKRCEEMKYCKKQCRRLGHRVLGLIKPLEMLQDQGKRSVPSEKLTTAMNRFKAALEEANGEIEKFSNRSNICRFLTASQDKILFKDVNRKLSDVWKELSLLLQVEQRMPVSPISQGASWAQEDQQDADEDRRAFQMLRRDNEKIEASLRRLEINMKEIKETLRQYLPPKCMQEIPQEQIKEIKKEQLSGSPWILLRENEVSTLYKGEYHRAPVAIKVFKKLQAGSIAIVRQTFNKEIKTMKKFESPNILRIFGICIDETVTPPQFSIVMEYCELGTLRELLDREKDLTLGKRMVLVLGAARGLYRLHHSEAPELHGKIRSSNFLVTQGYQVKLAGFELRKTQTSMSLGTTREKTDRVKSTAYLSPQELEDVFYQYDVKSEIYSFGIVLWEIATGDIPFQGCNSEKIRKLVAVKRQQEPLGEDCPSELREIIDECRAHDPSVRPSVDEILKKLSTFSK

[15] = target: Receptor-interacting serine/threonine-protein kinase 3 (Homo sapiens) (UniProt Q9Y572); test: Inhibition of RIPK3 phosphorylation in TSZ-induced human HT-29 cells at 10 uM preincubated with compound followed by Z-VAD-FMK, SM164 and TNFalpha stimulation and measured within 6 hrs by Western blot analysis relative to control; format: cell-based
HT-29 [16] = test: Downregulation of EGFR expression in human HT-29 cells at 0.75 to 6 uM incubated for 9 hrs by Western blot analysis; format: functional, cell-based; details: dose 0.75-6 µM
HT-29 [17] = test: Effect on RIPK3 protein level in human HT-29 cell precipitate at 6 uM measured after 9 hrs by Western blot analysis; format: functional, cell-based

Chain of Receptor-interacting serine/threonine-protein kinase 3 (Homo sapiens) (Q9Y572 whole entry, looked up): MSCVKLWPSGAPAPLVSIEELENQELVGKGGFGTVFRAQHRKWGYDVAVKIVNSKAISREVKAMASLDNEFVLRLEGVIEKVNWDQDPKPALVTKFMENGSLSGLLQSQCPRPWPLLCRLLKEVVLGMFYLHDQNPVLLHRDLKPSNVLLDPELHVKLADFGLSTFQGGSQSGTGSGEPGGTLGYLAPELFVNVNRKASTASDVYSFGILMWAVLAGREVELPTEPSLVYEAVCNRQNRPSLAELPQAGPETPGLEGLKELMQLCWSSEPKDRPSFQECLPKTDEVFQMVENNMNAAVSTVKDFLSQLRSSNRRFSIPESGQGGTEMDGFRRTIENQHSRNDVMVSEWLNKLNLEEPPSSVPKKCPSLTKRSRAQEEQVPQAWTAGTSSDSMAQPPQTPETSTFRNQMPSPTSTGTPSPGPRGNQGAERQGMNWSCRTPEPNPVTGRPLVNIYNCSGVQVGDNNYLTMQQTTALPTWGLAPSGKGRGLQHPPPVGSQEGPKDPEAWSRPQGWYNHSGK

## Cn1ccc(-c2ccc(NC(=O)[C@]34CCC(C)(C)C[C@H]3[C@H]3C(=O)C=C5[C@@]6(C)C=C(C#N)C(=O)C(C)(C)[C@@H]6CC[C@@]5(C)[C@]3(C)CC4)cc2)n1
RAW264.7
  Activity: Dose-dependent-effect
HT-29 [1]
  Activity: 100%
HT-29 [2]
  Activity: inactive
Mus musculus [3]
  Activity: Active
Mus musculus [4]
  Activity: Active
Mus musculus [5]
  Activity: Active
Mus musculus [6]
  Activity: Active
Mus musculus [7]
  Activity: Active
[8]
  bioavailability: 4.66%
[9]
  Activity: Non-toxic
[10]
  Activity: Non-toxic
[11]
  Activity: Non-toxic
[12]
  Activity: Non-toxic
[13]
  inhibition: Active
[14]
  inhibition: Active
[15]
  inhibition: 100%
HT-29 [16]
  Activity: Active
HT-29 [17]
  Activity: inactive

Reference: ChEMBL document CHEMBL6177981, “Bardoxolone Derivatives as Novel Pseudo-Natural Necroptosis Inhibitors by Destabilizing HSP90 Client Proteins” (J Med Chem, 2025)
